Each structure is given as a SMILES string.

From US8470763B2, “Alpha-amino-N-substituted amides, pharmaceutical composition containing them and uses thereof” (Shanghai Institute of Materia Medica Chinese Academy of …, priority 2007, dated 2013) come the findings set out here.

For one data set, the system named is human breast cancer cells MDA-MB-435 transplanted on nude mice. In words: Antineoplasmic activity in vivo, MDA-MB-435 transplanted tumor on nude mice. The note with it: MMC 5 mg/kg, d1, i.v.; P <0.05.
Experimental: Dosage: among 3 groups, the dosages of L538 were set at 5, 10 and 20 mg/kg as the high, middle and low dosages, respectively, administrating intravenously 3 times a week; while MMC was administrated intravenously at the first day whit a dosage of 5 mg/kg.
Animals: BALB/CA nude mice, male, 40-45 days old, body weight: 18±1 g, provided by Shanghai Institute of Materia Medica, Chinese Academy of Sciences. […] Animal number in each group: 7 in negative control group, and 4 in administration group.
The amount of inoculated cells was 5×10^6. After the transplanted tumor was formed by inoculation, it was used after passed for 3 generations in nude mice.
Experimental procedure: tumor tissue in productive phase was cut into nubs of about 1.5 mm^3. Under sterile conditions, the nubs were inoculated subcutaneously in right axillary fossa of the nude mice. The diameters of the transplanted tumors on nude mice were measured by a vernier caliper. When the tumors grew up to 100-200 mm^3, the animals were divided randomly into groups. Mice in experimental groups were administered intravenously every other day. […] The total administration duration was 3 weeks. For the positive control, MMC, Mice were administered intravenously once at the first day of a week, and the total administration duration was 3 weeks. Mice in control groups were administrated physiologic saline in equivalent amount. The diameter of the tumor and weight of mice were measured twice a week. The equation for calculating the TV (tumor volume) was as follows: TV=½×a×b^2, • wherein, a is length and b is width. RTV (relative tumor volume) was calculated based on the measured results, and the equation thereof was as follows: RTV=Vt/V0 • wherein, V0 is the tumor volume measured when the mice were grouped (i.e. d0), and Vt is the tumor volume at each measurement. The evaluation index for the antitumor activity was the relative tumor proliferation rateT/C (%).
The calculation equation was as follows: T/C(%)=(TRTV/CRTV)×100, • wherein, TRTV is the RTV of therapeutic Group and CRTV is RTV of negative control group.
With `CO[C@@]12[C@H](COC(N)=O)C3=C(C(=O)C(C)=C(N)C3=O)N1C[C@@H]1N[C@@H]12` [MMC, mitomycin, reference compound], the “T/C (%)” value was 44.3%.

Still in this data set, the particulars now being: MMC 5 mg/kg, d1, i.v.; d0 132 ± 52.
`CO[C@@]12[C@H](COC(N)=O)C3=C(C(=O)C(C)=C(N)C3=O)N1C[C@@H]1N[C@@H]12` [MMC, mitomycin, reference compound]: the “TV (mm^3) d21” value is on record as 844 ± 308 mm^3.

The data set is the same for the next values; noted with them: MMC 5 mg/kg, d1, i.v.; d21.
The molecule `CO[C@@]12[C@H](COC(N)=O)C3=C(C(=O)C(C)=C(N)C3=O)N1C[C@@H]1N[C@@H]12` [MMC, mitomycin, reference compound] returned an RTV of 6.6 ± 1.6.

Staying with this data set, now noted: MMC 5 mg/kg, d1, i.v.; initial 17.8 g.
For the molecule `CO[C@@]12[C@H](COC(N)=O)C3=C(C(=O)C(C)=C(N)C3=O)N1C[C@@H]1N[C@@H]12` [MMC, mitomycin, reference compound], the “Body Weight(g) Ultimate” value was determined as 21.7 g.

Another data set concerns MDA-MB-435S human breast cancer cells. In words: MTT assay, proliferation of MDA-MB-435S cells. It is filed as cell-based. The following applies: Homo sapiens, 72 h, read-out: Cell Survival Rate IC50. As for the experimental part:
The experiments for evaluating the antineoplasmic activities of the compounds according to the present invention were carried out, and the compounds' antineoplasmic activities in vitro was evaluated by determining the inhibitory activities thereof against the proliferation of MDA-MB-435S human breast cancer cells.
The antineoplasmic activities were determined by using the MTT assay, which is based on the metabolic reduction of 3-(4,5-dimethylthylthiazol-2-yl)-2,5-diphenyl tetrazolium bromide (MTT). The dehydrogenases, which are related to NADP (niacinamide adenine dinucleotide phosphate, coenzyme) and present in mitochondrions of living cells, can reduce the yellow MTT to an insoluble, dark purple formazan. […] After the formazan is dissolved in DMSO, the optical density is determined on an ELISA Reader at the wavelength of 550/690 nm.
The adhered MDA-MB-4355 cells in logarithmic growth phase, were digested by 0.05% trypsogen, counted and formulated into a cell suspension with a medium. After counted, the suspension was inoculated on a 96-well plate with 3000 cells and 100 μl medium per well. The inoculated 96-well plate was placed overnight in an incubator at 37 with 5% CO2 to allow the cells to adhere to the wall. On the next day, the administration of the drugs started. Before the administration, into some of the control wells, each was added 20 μl of the MTT solution (5 mg/ml) without removing the medium therein. After incubated for 3 h, the absorption at A550/690 was recorded as the initial cell concentration. For the drug wells, each was added into 100 μl of medium containing 2 μl of compound solution. For the control wells which use DMSO as background control, each was also added into 100 μl of medium containing 2 μl of DMSO. In addition, each experiment was carried out with adriamycin as the positive control. Subsequently, the 96-well plate was incubated in an incubator at 37 with 5% CO2 for 72 h. each compound was tested in triplicate wells (6 μl of compound solution was put into a sterilized eppendorf centrifuge tube, then 300 μl of medium was added and mixed well, and the mixture was distributed into 3 wells respectively), and at six concentrations which form a gradient. 3 days (72 h) later, 40 μl of MTT solution (5 mg/ml) was put into each well directly (without sucking off the medium therein), and the plate was incubated in the incubator for 3 h and then taken out. The liquid in each well was sucked off, and then 100 μl of DMSO was put into each well to dissolve the crystal completely with slight shake. The absorbance of the solution in each well was determined at 550/690 nm on an ELISA Reader as the cell density after treated with the compound. The growth inhibition of compound against breast cancer cells MDA-MB-435S was represented by the cell survival rate, and IC50 was determined from the profile of cell survival rate vs compound concentration. The calculating formula was as follows: cell survival rate=[(cells+compound)A550/690/(cells+compound vector DMSO)A550/690]×100%
For orientation: Tetrazolium assays rely on reduction of a dye to a coloured formazan, in cell work by metabolically active cells.
The IC50 is the concentration at which inhibition is half-maximal. Take `C=CCNC(=O)[C@H](C)NC(=O)[C@H](OC)[C@H](O)[C@@H](O)[C@H](O)/C=C/C(C)(C)C` [Compound L372]: the IC50 is 3.53 µM. In the case of `CO[C@@H](C(=O)N[C@@H](C)C(=O)NCCO)[C@H](O)[C@@H](O)[C@H](O)/C=C/C(C)(C)C` [Compound L376], the IC50 turned out to be 5.44 µM. The same measure, in the same setting: as for `C=CCNC(=O)[C@@H](NC(=O)[C@H](OC)[C@H](O)[C@@H](O)[C@H](O)/C=C/C(C)(C)C)C(C)C` [Compound L400], the figure is 9.68 µM. On to `CO[C@@H](C(=O)N[C@@H](CC(C)C)C(=O)NCCO)[C@H](O)[C@@H](O)[C@H](O)/C=C/C(C)(C)C` [Compound L418b], for which the IC50 was determined as 1.5 µM. For `CO[C@@H](C(=O)N[C@@H](C)C(=O)NCCOC(C)C)[C@H](O)[C@@H](O)[C@H](O)/C=C/C(C)(C)C` [Compound L418c], the IC50 stood at 13.9 µM. As to `C=CCNC(=O)[C@H](CCSC)NC(=O)[C@H](OC)[C@H](O)[C@@H](O)[C@H](O)/C=C/C(C)(C)C` [Compound L432], the concentration for half-maximal inhibition (IC50) is 4.57 µM.

With `CO[C@@H](C(=O)N[C@@H](C)C(=O)NCCOCC(C)C)[C@H](O)[C@@H](O)[C@H](O)/C=C/C(C)(C)C` [Compound L432a], the IC50 was 40 µM.

Consider `CO[C@@H](C(=O)N[C@@H](C)C(=O)NCCCOC(C)C)[C@H](O)[C@@H](O)[C@H](O)/C=C/C(C)(C)C` [Compound L432b], for which the 50% inhibitory concentration (IC50) was determined as 21.6 µM. For the molecule `CO[C@@H](C(=O)N[C@@H](C)C(=O)NCCOC(=O)C1CC1)[C@H](O)[C@@H](O)[C@H](O)/C=C/C(C)(C)C` [Compound L444g], the IC50 turned out to be 6.07 µM. In the case of `CO[C@@H](C(=O)N[C@@H](C)C(=O)NCCOC(=O)C(C)C)[C@H](O)[C@@H](O)[C@H](O)/C=C/C(C)(C)C` [Compound L446a], the IC50 was 7.06 µM.

Take `CO[C@@H](C(=O)N[C@@H](C)C(=O)NCCCOCC(C)C)[C@H](O)[C@@H](O)[C@H](O)/C=C/C(C)(C)C` [Compound L446b]: the IC50 was found to be 9.56 µM. The same measure, in the same setting: as for `CO[C@@H](C(=O)N[C@@H](Cc1ccccc1)C(=O)NCCO)[C@H](O)[C@@H](O)[C@H](O)/C=C/C(C)(C)C` [Compound L452], the figure is 5.25 µM; as for `CO[C@@H](C(=O)N[C@@H](C)C(=O)NCCOC(=O)C1CCC1)[C@H](O)[C@@H](O)[C@H](O)/C=C/C(C)(C)C` [Compound L458], 0.89 µM; as for `CO[C@@H](C(=O)N[C@@H](C)C(=O)NCCOC(=O)C(C)(C)C)[C@H](O)[C@@H](O)[C@H](O)/C=C/C(C)(C)C` [Compound L460], 3.38 µM. As to `CO[C@@H](C(=O)N[C@@H](C)C(=O)NCCOCc1ccccc1)[C@H](O)[C@@H](O)[C@H](O)/C=C/C(C)(C)C` [Compound L466], the 50% inhibitory concentration (IC50) is around 10 µM. Regarding `CO[C@@H](C(=O)N[C@@H](C)C(=O)NCC(=O)NC1CCCCC1)[C@H](O)[C@@H](O)[C@H](O)/C=C/C(C)(C)C` [Compound L471], the IC50 came to 4.79 µM. For `C#CCCCC(=O)OCCNC(=O)[C@H](C)NC(=O)[C@H](OC)[C@H](O)[C@@H](O)[C@H](O)/C=C/C(C)(C)C` [Compound L471b], the IC50 amounted to 0.11 µM. Take `CO[C@@H](C(=O)N[C@@H](C)C(=O)NCCOC(=O)C1CCCC1)[C@H](O)[C@@H](O)[C@H](O)/C=C/C(C)(C)C` [Compound L472-3]: the IC50 amounted to 0.72 µM. Still for that read-out and setting: the value for `CO[C@@H](C(=O)N[C@@H](C)C(=O)NCC(=O)OC1CCCCC1)[C@H](O)[C@@H](O)[C@H](O)/C=C/C(C)(C)C` [Compound L472-4] was 1.54 µM; that for `CO[C@@H](C(=O)N[C@@H](C)C(=O)NCCCOC1CCCCC1)[C@H](O)[C@@H](O)[C@H](O)/C=C/C(C)(C)C` [Compound L472] was above 2.5 µM; that for `CO[C@@H](C(=O)N[C@@H](C)C(=O)NCCOC(=O)[C@H]1CCCO1)[C@H](O)[C@@H](O)[C@H](O)/C=C/C(C)(C)C` [Compound L474] was 8.86 µM. In the case of `CO[C@@H](C(=O)N[C@@H](C)C(=O)NCCOC(=O)c1ccccc1)[C@H](O)[C@@H](O)[C@H](O)/C=C/C(C)(C)C` [Compound L480], the IC50 was determined as 2.37 µM. On to `CO[C@@H](C(=O)N[C@@H](C)C(=O)NCCNC(=O)C1CCCCC1)[C@H](O)[C@@H](O)[C@H](O)/C=C/C(C)(C)C` [Compound L485], for which the IC50 was determined as 3.15 µM. Turning to `C=CCNC(=O)[C@H](CCC(=O)OC(C)(C)C)NC(=O)[C@H](OC)[C@H](O)[C@@H](O)[C@H](O)/C=C/C(C)(C)C` [Compound L486e], the IC50 worked out at 2.85 µM. For `CO[C@@H](C(=O)N[C@@H](Cc1c[nH]c2ccccc12)C(=O)NCCO)[C@H](O)[C@@H](O)[C@H](O)/C=C/C(C)(C)C` [Compound L491], the IC50 was 5.13 µM. Consider `CO[C@@H](C(=O)N[C@@H](C)C(=O)NCC(C)OC(=O)C1CCCCC1)[C@H](O)[C@@H](O)[C@H](O)/C=C/C(C)(C)C` (stereo partly drawn) [Compound L500a], for which the IC50 came out at 0.8 µM. On the same count and under the same terms, the value for `CO[C@@H](C(=O)N[C@@H](C)C(=O)NCCCOC(=O)C1CCCCC1)[C@H](O)[C@@H](O)[C@H](O)/C=C/C(C)(C)C` [Compound L500b] was 0.14 µM.

Turning to `CO[C@@H](C(=O)N[C@@H](C)C(=O)NCCOC(=O)CC1CCCCC1)[C@H](O)[C@@H](O)[C@H](O)/C=C/C(C)(C)C` [Compound L500c], the IC50 came to 1.93 µM. As for `CCCCC(CC)C(=O)OCCNC(=O)[C@H](C)NC(=O)[C@H](OC)[C@H](O)[C@@H](O)[C@H](O)/C=C/C(C)(C)C` (stereo partly drawn) [Compound L502], the 50% inhibitory concentration (IC50) was found to be 2.55 µM. Take `CO[C@@H](C(=O)N[C@H](C(=O)NCCOC(=O)C1CCCCC1)C(C)C)[C@H](O)[C@@H](O)[C@H](O)/C=C/C(C)(C)C` [Compound L514c]: the IC50 was found to be 2.22 µM. Take `CO[C@@H](C(=O)N[C@@H](C)C(=O)NCC1CC(Cc2ccccc2)C(=O)O1)[C@H](O)[C@@H](O)[C@H](O)/C=C/C(C)(C)C` (stereo partly drawn) [Compound L521]: the IC50 amounted to 25.2 µM. Same read-out and setting: the value for `CCC(C)[C@H](NC(=O)[C@H](OC)[C@H](O)[C@@H](O)[C@H](O)/C=C/C(C)(C)C)C(=O)NCCOC(=O)C1CCCCC1` (stereo partly drawn) [Compound L528a] was 3.24 µM; that for `CO[C@@H](C(=O)N[C@@H](CC(C)C)C(=O)NCCOC(=O)C1CCCCC1)[C@H](O)[C@@H](O)[C@H](O)/C=C/C(C)(C)C` [Compound L528b] was 2.62 µM; that for `CCCC[C@H](NC(=O)[C@H](OC)[C@H](O)[C@@H](O)[C@H](O)/C=C/C(C)(C)C)C(=O)NCCOC(=O)C1CCCCC1` [Compound L528c] was 2.91 µM. Still for that read-out and setting: as for `CO[C@@H](C(=O)N[C@@H](C)C(=O)NCCOC(=O)OCCCc1ccccc1)[C@H](O)[C@@H](O)[C@H](O)/C=C/C(C)(C)C` [Compound L538b], the figure is 0.76 µM.

On to `C=CCNC(=O)[C@H](Cc1cn(COCc2ccccc2)cn1)NC(=O)[C@H](OC)[C@H](O)[C@@H](O)[C@H](O)/C=C/C(C)(C)C` [Compound L558b], for which the 50% inhibitory concentration (IC50) came out at 1.9 µM. For `CO[C@@H](C(=O)N[C@@H](C)C(=O)NCCOC(=O)CCCCCCCCCN=[N+]=[N-])[C@H](O)[C@@H](O)[C@H](O)/C=C/C(C)(C)C` [Compound L572], the IC50 is 0.11 µM. `CO[C@@H](C(=O)N[C@@H](CCCCNC(=O)OC(C)(C)C)C(=O)NCCOC(=O)C1CCCCC1)[C@H](O)[C@@H](O)[C@H](O)/C=C/C(C)(C)C` [Compound L643]: the IC50 stood at 1.56 µM.
